Results published in patent US8420657B2 (Novartis AG, priority 2008, dated 2013).

Legend:
[1] = biological target: T1, GST-JAK2(808-1132) (Homo sapiens, UniProt O60674); experiment: JAK2 kinase assay (Caliper mobility shift, LabChip 3000); type: biochemical
T1 construct: GST-JAK2(808-1132); purchased Invitrogen (Carlsbad, USA) #4288
Summary of the method: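 Recombinant GST-JAK2(808-1132) kinase domain with FITC-labelled JAK3tide peptide substrate and ATP; 60 min at 30 °C, EDTA stop. Substrate/product ratio read by microfluidic mobility shift; compounds at 8 final concentrations, 10 to 0.003 μM.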

[2] = system: JAK1/JAK2-dependent nuclear translocation of STAT1-GFP in HT1080 fibrosarcoma cells; experiment: STAT1 nuclear translocation assay (Cellomics), IFN-γ stimulated HT1080 STAT1-GFP cells; type: cell-based; conditions: Homo sapiens, HT-1080, STAT1 translocation pathway
Summary of the method: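 HT1080 cells stably expressing STAT1-GFP, pre-treated 30 min with compound (10 μM–0.003 μM, 0.1% DMSO), then stimulated 2 h with 100 ng/ml IFN-γ, fixed and Hoechst-stained. Nuclear-cytoplasmic GFP differential imaged over ≥1000 cells/well, normalised to unstimulated and DMSO-stimulated wells for IC50.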

T1 sequence (O60674 808-1132): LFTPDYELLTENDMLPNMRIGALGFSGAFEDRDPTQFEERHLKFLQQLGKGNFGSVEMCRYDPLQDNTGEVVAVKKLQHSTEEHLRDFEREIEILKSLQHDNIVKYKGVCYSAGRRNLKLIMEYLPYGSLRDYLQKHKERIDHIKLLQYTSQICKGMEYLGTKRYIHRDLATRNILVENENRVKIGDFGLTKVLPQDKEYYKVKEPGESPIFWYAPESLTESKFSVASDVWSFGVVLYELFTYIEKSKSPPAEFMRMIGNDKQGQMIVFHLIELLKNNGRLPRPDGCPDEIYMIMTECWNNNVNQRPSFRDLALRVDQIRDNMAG

| IC50 [1] | IC50 [2] | Structure (SMILES) |
| --- | --- | --- |
| < 3 nM | 430 nM | CN1CCN(Cc2cccc(Nc3ncc4ccn(-c5cc(F)c(C(=O)N6CCOCC6)c(F)c5)c4n3)c2)CC1 [Example 245, (2,6-Difluoro-4-{2-[3-(4-methyl-piperazin-1-ylmethyl)-phenylamino]-pyrrolo[2,3-d]pyrimidin-7-yl}-phenyl)-morpholin-4-yl-methanone] |
| 1050 nM | 10000 nM | O=C(c1c(F)cc(-n2ccc3cnc(Nc4ccncn4)nc32)cc1F)N1CCOCC1 [Example 218, {2,6-Difluoro-4-[2-(pyrimidin-4-ylamino)-pyrrolo[2,3-d]pyrimidin-7-yl]-phenyl}-morpholin-4-yl-methanone] |
| 3.3 nM | 579 nM | O=C(c1c(F)cc(-n2ccc3cnc(Nc4cccnc4)nc32)cc1F)N1CCOCC1 [Example 216, {2,6-Difluoro-4-[2-(pyridin-3-ylamino)-pyrrolo[2,3-d]pyrimidin-7-yl]-phenyl}-morpholin-4-yl-methanone] |
| 26 nM | 2680 nM | Cc1ccc(Nc2ncc3ccn(-c4cc(F)c(CN5CCN(C(C)C)CC5)c(F)c4)c3n2)cc1C [Example 305, {7-[3,5-Difluoro-4-(4-isopropyl-piperazin-1-ylmethyl)-phenyl]-7H-pyrrolo[2,3-d]pyrimidin-2-yl}-(3,4-dimethyl-phenyl)-amine] |
| 6.9 nM | 115 nM | C[C@@H]1CN(Cc2ccc(Nc3ncc4ccn(-c5cc(F)c(C(=O)N6CCOCC6)c(F)c5)c4n3)cc2)C[C@H](C)N1 [Example 255, (4-{2-[4-(cis-3,5-Dimethyl-piperazin-1-ylmethyl)-phenylamino]-pyrrolo[2,3-d]pyrimidin-7-yl}-2,6-difluoro-phenyl)-morpholin-4-yl-methanone] |
| 46.5 nM | 441 nM | CCOc1ccc(Nc2ncc3cc(C)n(-c4ccc(C(=O)N5CCOCC5)c(F)c4)c3n2)cc1OCC [Example 287, {4-[2-(3,4-Diethoxy-phenylamino)-6-methyl-pyrrolo[2,3-d]pyrimidin-7-yl]-2-fluoro-phenyl}-morpholin-4-yl-methanone] |
| 30 nM | 2140 nM | Cc1ccc(Nc2ncc3ccn(-c4ccc(C(=O)NCCN5CCOCC5)c(F)c4)c3n2)cc1C [Example 297, 4-[2-(3,4-Dimethyl-phenylamino)-pyrrolo[2,3-d]pyrimidin-7-yl]-2-fluoro-N-(2-morpholin-4-yl-ethyl)-benzamide] |
| 4.9 nM | 295 nM | COc1cc(Nc2ncc3ccn(-c4ccc(C(=O)N5CCOCC5)c(F)c4)c3n2)ccc1C [Example 303, {2-Fluoro-4-[2-(3-methoxy-4-methyl-phenylamino)-pyrrolo[2,3-d]pyrimidin-7-yl]-phenyl}-morpholin-4-yl-methanone] |
| 4.2 nM | 285 nM | O=C(c1c(F)cc(-n2ccc3cnc(Nc4ccc(N5CCNCC5)nc4)nc32)cc1F)N1CCOCC1 [Example 262, {2,6-Difluoro-4-[2-(6-piperazin-1-yl-pyridin-3-ylamino)-pyrrolo[2,3-d]pyrimidin-7-yl]-phenyl}-morpholin-4-yl-methanone] |

The next lines start with the molecule.

| Structure (SMILES) | IC50 [1] | IC50 [2] |
| --- | --- | --- |
| Cc1ccc(Nc2ncc3ccn(-c4ccc(CN5CCS(=O)(=O)CC5)c(F)c4)c3n2)cc1Cl [Example 121, (3-Chloro-4-methyl-phenyl)-{7-[4-(1,1-dioxido-thiomorpholin-4-ylmethyl)-3-fluoro-phenyl]-7H-pyrrolo[2,3-d]pyrimidin-2-yl}-amine] | 15.5 nM | 152 nM |
| Cc1ccc(Nc2ncc3ccn(-c4ccc(CS(C)(=O)=O)cc4)c3n2)cc1 [Example 140, [7-(4-Methanesulfonylmethyl-phenyl)-7H-pyrrolo[2,3-d]pyrimidin-2-yl]-p-tolyl-amine] | 4.5 nM | 310 nM |
| CN1CCN(C(=O)c2ccc(Nc3ncc4ccn(-c5ccc(S(C)(=O)=O)cc5)c4n3)cc2Cl)CC1 [Example 94, {2-Chloro-4-[7-(4-methanesulfonyl-phenyl)-7H-pyrrolo[2,3-d]pyrimidin-2-ylamino]-phenyl}-(4-methyl-piperazin-1-yl)-methanone] | 3.8 nM | 259 nM |
| Cc1ccc(Nc2ncc3ccn(-c4ccc(C(=O)N5CCN(C)CC5)c(F)c4)c3n2)cc1C [Example 155, {4-[2-(3,4-Dimethyl-phenylamino)-pyrrolo[2,3-d]pyrimidin-7-yl]-2-fluoro-phenyl}-(4-methyl-piperazin-1-yl)-methanone] | 200 nM | 3280 nM |
| CC(C)Oc1ccc(Nc2ncc3ccn(-c4ccc(CN5CCS(=O)(=O)CC5)c(F)c4)c3n2)cc1 [Example 112, {7-[4-(1,1-Dioxido-thiomorpholin-4-ylmethyl)-3-fluoro-phenyl]-7H-pyrrolo[2,3-d]pyrimidin-2-yl}-(4-isopropoxy-phenyl)-amine] | < 3 nM | 73 nM |
| CC(C)Oc1ccc(Nc2ncc3ccn(-c4ccc(CN5CCOCC5)c(Cl)c4)c3n2)cc1 [Example 110, [7-(3-Chloro-4-morpholin-4-yl methyl-phenyl)-7H-pyrrolo[2,3-d]pyrimidin-2-yl]-(4-isopropoxy-phenyl)-amine] | 13.5 nM | 1110 nM |
| CC(C)Oc1ccc(Nc2ncc3ccn(-c4ccc(C(=O)N5CCOCC5)c(F)c4)c3n2)cc1 [Example 98, {2-Fluoro-4-[2-(4-isopropoxy-phenylamino)-pyrrolo[2,3-d]pyrimidin-7-yl]-phenyl}-morpholin-4-yl-methanone] | 5.6 nM | 575 nM |
| Cc1cc(Nc2ncc3ccn(-c4ccc(C(=O)N5CCOCC5)c(F)c4)c3n2)ccc1F [Example 92, {2-Fluoro-4-[2-(4-fluoro-3-methyl-phenylamino)-pyrrolo[2,3-d]pyrimidin-7-yl]-phenyl}-morpholin-4-yl-methanone] | 4.2 nM | 260 nM |
| CC(C)Oc1ccc(Nc2ncc3ccn(-c4ccc(C(C)(C)C(=O)N5CCOCC5)cc4)c3n2)cc1 [Example 83, 2-{4-[2-(4-Isopropoxy-phenylamino)-pyrrolo[2,3-d]pyrimidin-7-yl]-phenyl}-2-methyl-1-morpholin-4-yl-propan-1-one] | < 3 nM | 460 nM |
| COc1cc(Nc2ncc3ccn(-c4ccc(CC(=O)N5CCOCC5)cc4)c3n2)ccc1F [Example 142, 2-{4-[2-(4-Fluoro-3-methoxy-phenylamino)-pyrrolo[2,3-d]pyrimidin-7-yl]-phenyl}-1-morpholin-4-yl-ethanone] | < 3 nM | 101 nM |
| Cc1cc(Nc2ncc3ccn(-c4ccc(C(=O)N5CCOCC5)c(C)c4)c3n2)ccc1F [Example 91, {4-[2-(4-Fluoro-3-methyl-phenylamino)-pyrrolo[2,3-d]pyrimidin-7-yl]-2-methyl-phenyl}-morpholin-4-yl-methanone] | < 3 nM | 435 nM |
| CN1CCN(C(=O)c2ccc(-n3ccc4cnc(Nc5ccc(F)cc5)nc43)cc2)CC1 [Example 56, {4-[2-(4-Fluoro-phenylamino)-pyrrolo[2,3-d]pyrimidin-7-yl]-phenyl}-(4-methyl-piperazin-1-yl)-methanone] | 32 nM | 4680 nM |
| CN1CCN(C(=O)c2ccc(Nc3ncc4ccn(-c5ccc(S(C)(=O)=O)cc5)c4n3)cc2F)CC1 [Example 71, {2-Fluoro-4-[7-(4-methanesulfonyl-phenyl)-7H-pyrrolo[2,3-d]pyrimidin-2-ylamino]-phenyl}-(4-methyl-piperazin-1-yl)-methanone] | 6.8 nM | 362 nM |
| Cc1cc(-n2ccc3cnc(Nc4ccc(OC(C)C)cc4)nc32)ccc1CN1CCOCC1 [Example 111, (4-Isopropoxy-phenyl)-[7-(3-methyl-4-morpholin-4-ylmethyl-phenyl)-7H-pyrrolo[2,3-d]pyrimidin-2-yl]-amine] | 14.5 nM | 846 nM |
| Cc1ccc(Nc2ncc3cc(C)n(-c4ccc(CC(=O)N5CCN(C)CC5)cc4)c3n2)cc1C [Example 161, 2-{4-[2-(3,4-Dimethyl-phenylamino)-6-methyl-pyrrolo[2,3-d]pyrimidin-7-yl]-phenyl}-1-(4-methyl-piperazin-1-yl)-ethanone] | 870 nM | 9350 nM |
| CN(C)C1CCN(C(=O)c2ccc(Nc3ncc4ccn(-c5ccc(S(C)(=O)=O)cc5)c4n3)cc2)CC1 [Example 66, (4-Dimethylamino-piperidin-1-yl)-{4-[7-(4-methanesulfonyl-phenyl)-7H-pyrrolo[2,3-d]pyrimidin-2-ylamino]-phenyl}-methanone] | 3.5 nM | 75.5 nM |
| O=C(c1ccc(Nc2ncc3ccn(-c4ccc(CN5CCOCC5)c(F)c4)c3n2)cc1)N1CCOCC1 [Example 157, {4-[7-(3-Fluoro-4-morpholin-4-ylmethyl-phenyl)-7H-pyrrolo[2,3-d]pyrimidin-2-ylamino]-phenyl}-morpholin-4-yl-methanone] | 6.1 nM | 130 nM |
| O=C(c1ccc(Nc2ncc3ccn(-c4cc(F)c(CN5CCS(=O)(=O)CC5)c(F)c4)c3n2)cc1)N1CCOCC1 [Example 187, (4-{7-[4-(1,1-Dioxido-thiomorpholin-4-ylmethyl)-3,5-difluoro-phenyl]-7H-pyrrolo[2,3-d]pyrimidin-2-ylamino}-phenyl)-morpholin-4-yl-methanone] | < 3 nM | 55 nM |
| O=S1(=O)CCN(Cc2c(F)cc(-n3ccc4cnc(Nc5ccncc5)nc43)cc2F)CC1 [Example 183, {7-[4-(1,1-Dioxido-thiomorpholin-4-ylmethyl)-3,5-difluoro-phenyl]-7H-pyrrolo[2,3-d]pyrimidin-2-yl}-pyridin-4-yl-amine] | 3.3 nM | 95 nM |
